{"source": "patent US20020127282A1", "about": "“Multivalent silver pharmaceuticals” (priority 1991, published 2002)", "key": {"[1]": {"details": "albino rabbits, oxide concentrate", "procedure": "(§1) Tests were conducted to see whether said tetroxide posed any harm to the human body. Accordingly, a 3% concentrate of the compound was prepared for a series of evaluations.\nThe third evaluation, entitled “Primary Dermal Irritation in Albino Rabbits”, conformed to 40 CFR 160. It consisted of exposing the rabbits for prolonged periods of time and observing edema, erythema, ulceration, necrosis and any other evidence of dermal reactions or tissue destruction."}, "[2]": {"system": "Pseudomonas aeruginosa 9027", "details": "concentration not given", "procedure": "(§2) More stringent testing was then performed in which the cultures were actually placed in trypticase soy nutrient broth, which allowed the pathogens being tested to replicate without being detached from its own food supply."}, "E. coli [3]": {"system": "E. coli", "details": "trypticase soy nutrient broth", "procedure": "as §2"}, "[4]": {"system": "Streptococcus faecalis strain 10541", "details": "trypticase soy nutrient broth", "procedure": "as §2"}, "[5]": {"details": "rabbits, dermal application", "procedure": "as §1\nThe second evaluation was for acute dermal toxicity in rabbits. The protocol, 40 CFR 158.135, 81-2, was to determine the LD50 for dermal application."}, "[6]": {"details": "rats", "procedure": "as §1\nThe first evaluation met the requirements of Code of Federal Regulations (40 CFR 160). It consisted of determining the single dose toxicity in rats or LD50."}, "Staphylococcus aureus": {"system": "Staphylococcus aureus", "details": "24 hours at 34-35° C., 10 PPM sodium persulfate", "protocol": "(§4) Once it could be determined that the devices inhibited a particular microorganism, the minimal concentration required of Ag4O4 was determined to inhibit the microorganism in nutrient broth. Strains of gram positive bacteria were chosen for the evaluation. […] Accordingly, three staph strains were selected as follows for evaluation: Staphylococcus aureus 9027 and 27543, and Staphylococcus epidermidis 12228. The inoculum nutrient broth was prepared according to AOAC specifications so as to contain 0.6-1 million organisms per drop of inoculum, each drop being equal to 0.05 ml. The broth itself was trypticase soy broth BBL 11766 prepared according to label instructions. Accordingly, the broth was prestandardized for the microorganisms in question in order to assure that the number of organisms remained constant within the margins of statistical allowance during the test period."}, "[7]": {"system": "Saccharomycetpideae variety", "details": "Sabouraud dextrose broth", "text": "Silver tetroxide was further evaluated in analogous nutrient used for yeasts and molds, namely, Sabouraud dextrose broth."}, "[8]": {"system": "Streptococcus ogalactiae 27956", "protocol": "as §4"}, "Chorella species": {"system": "Chorella species", "type": "cell-based", "details": "within 5 minutes; Chorella species incubated for 10 days in algae nutrient", "protocol": "(§5) Select compounds of said moieties were also evaluated against algae utilizing Chorella species incubated for 10 days in algae nutrient. […] It was evaluated at 0.5 and 1.0 PPM on gram positive and negative cultures in the presence of 10 PPM sodium persulfate."}, "[9]": {"details": "crystal concentrate applied", "procedure": "as §1\nThe fourth evaluation dealt with primary eye irritation. This also was in conformity with 40 CFR 160."}, "[10]": {"system": "Enterobacter cloacac 13047", "details": "concentration not given"}, "Streptococcus faecalis": {"system": "Streptococcus faecalis", "details": "0.5 PPM; within 0.5 minutes; 10 PPM sodium persulfate; AOAC protocol", "protocol": "as §5"}, "[11]": {"system": "Staphylococcus epidermidis 12228", "details": "24 hours at 34-35° C., 10 PPM sodium persulfate", "procedure": "(§3) Both the prepared and commercial materials were submitted for bactericidal evaluation following “good laboratory practice” regulations as set forth in Federal regulations (FIFRA and ffdca/40 CFR 150, May 2, 1984). The silver materials were tested as to whether they could kill pathogenic microorganisms with the intent of utilizing them in pharmaceutical applications. […] Strains of gram positive bacteria were chosen for the evaluation. One family of pathogens that are known for their deleterious effects on humans are popularly called “staph” infections. These infections are commonly contracted in hospitals having lax infectious screening procedures. Accordingly, three staph strains were selected as follows for evaluation: Staphylococcus aureus 9027 and 27543, and Staphylococcus epidermidis 12228. The inoculum nutrient broth was prepared according to AOAC specifications so as to contain 0.6-1 million organisms per drop of inoculum, each drop being equal to 0.05 ml. The broth itself was trypticase soy broth BBL 11766 prepared according to label instructions. Accordingly, the broth was prestandardized for the microorganisms in question in order to assure that the number of organisms remained constant within the margins of statistical allowance during the test period. […] Other gram positive bacteria pathogens were similarly evaluated."}, "[12]": {"system": "Candida albicans strain 16464", "details": "Sabouraud dextrose broth", "procedure": "as §3"}, "[13]": {"system": "Streptococcus pyogenes 7958", "procedure": "as §3"}, "Micrococcus luteus 9341": {"system": "Micrococcus luteus 9341", "procedure": "as §3"}, "Bacillus subtilis 6633": {"system": "Bacillus subtilis 6633", "procedure": "as §3"}, "Candida albercans": {"system": "Candida albercans", "details": "Sabouraud dextrose broth"}, "E. coli [14]": {"system": "E. coli", "details": "0.5 PPM; within 0.5 minutes; 10 PPM sodium persulfate; AOAC protocol", "protocol": "as §5"}}, "note": "Where two headings read alike, the source gives them in different places.", "data": [{"smiles": "[Ag+].[Ag+].[Ag+].[Ag+].[O-2].[O-2].[O-2].[O-2]", "note": "[Tetrasilver tetroxide]", "values": [{"measurement": "FDA category as dermal agent", "setting": "[1]", "value": "category IV"}, {"measurement": "dermal reactions (edema, erythema, ulceration, necrosis, tissue destruction)", "setting": "[1]; prolonged exposure", "value": "none"}, {"measurement": "kills", "setting": "[2]", "value": 100, "unit": "%"}, {"measurement": "concentration achieving 100% kills", "setting": "E. coli [3]; E. coli strain 10231", "value": 2.5, "unit": "PPM"}, {"measurement": "concentration achieving 100% kills", "setting": "E. coli [3]; E. coli strain 25254", "value": 2.5, "unit": "PPM"}, {"measurement": "concentration achieving 100% kills", "setting": "[4]", "value": 5.0, "unit": "PPM"}, {"measurement": "toxicity category (acute dermal)", "setting": "[5]", "value": "category III"}, {"measurement": "dermal LD50", "setting": "[5]; all animals survived maximum dose", "value": "greater than 2000 mg./Kg."}, {"measurement": "FDA toxicity category", "setting": "[6]; single dose toxicity", "value": "category IV"}, {"measurement": "LD50", "setting": "[6]; single dose, 3% concentrate, all animals survived", "value": "greater than 5000 mg./Kg."}, {"measurement": "minimal concentration to inhibit the microorganism", "setting": "Staphylococcus aureus; Staphylococcus aureus 9027", "value": 2.5, "unit": "PPM"}, {"measurement": "minimal concentration to inhibit the microorganism", "setting": "Staphylococcus aureus; Staphylococcus aureus 27543", "value": 5.0, "unit": "PPM"}, {"measurement": "concentration at which totally killed", "setting": "[7]", "value": 1.25, "unit": "PPM"}, {"measurement": "minimal inhibiting concentration required for 100% kills", "setting": "[8]", "value": 1.25, "unit": "PPM"}, {"measurement": "concentration effecting 100% kills of algae", "setting": "Chorella species", "value": "about 1 PPM"}, {"measurement": "FDA category for eye effects", "setting": "[9]", "value": "category IV"}, {"measurement": "eye irritation", "setting": "[9]", "value": "no eye irritation"}, {"measurement": "kills", "setting": "[10]", "value": 100, "unit": "%"}, {"measurement": "kill of colonies of Streptococcus faecalis", "setting": "Streptococcus faecalis", "value": 100, "unit": "%"}, {"measurement": "minimal concentration to inhibit the microorganism", "setting": "[11]", "value": 0.625, "unit": "PPM"}, {"measurement": "concentration completely inhibiting growth", "setting": "[12]", "value": 2.5, "unit": "PPM"}, {"measurement": "minimal inhibiting concentration required for 100% kills", "setting": "[13]", "value": 2.50, "unit": "PPM"}, {"measurement": "minimal inhibiting concentration required for 100% kills", "setting": "Micrococcus luteus 9341", "value": 1.25, "unit": "PPM"}, {"measurement": "minimal inhibiting concentration required for 100% kills", "setting": "Bacillus subtilis 6633", "value": 5.00, "unit": "PPM"}, {"measurement": "concentration at which totally killed", "setting": "Candida albercans", "value": 2.5, "unit": "PPM"}, {"measurement": "kill of colonies of E. coli", "setting": "E. coli [14]", "value": 100, "unit": "%"}]}]}
